Measurements: patent publication US7595300B2, “7-quinolyl ketolide antibacterial agents” (priority 2005, dated 2009)
≈ marks a conversion by molar mass, not a printed value.

What was measured:
male beagle dogs = assay: Cardiovascular safety in telemetered dogs, intravenous infusion; type: in vivo, dog
Excerpt: Four male beagle dogs, obtained from Marshall Farms USA, Inc. (North Rose, N.Y.), were surgically instrumented with telemetry transducers (Data Sciences International, type RL11M2-D70-PCT) to assess arterial blood pressure (ABP) and lead II electrocardiogram (ECG) parameters.
(§1) The dosing route was an intravenous infusion jugular vein access). The infusion was accomplished using a CADD Prizm® ambulatory infusion pump attached to a jacket worn by the dog. The dose duration for the intravenous infusion was 30 min for all doses administered, except the last dose (30 mg/kg) where the infusion period was extended to 45 min to accommodate the larger dose volume required for this dose. The vehicle dose and diluent for the test article was 0.05-M sodium citrate in sterile water for injection.
(§2) There was one treatment group of four non-naïve dogs and the study was comprised of both pharmacokinetic and telemetry phases, as summarized in the dose administration table for compound (III) (Table 16) below. At least one week was given between dosings to allow clearance of the drug.
For the telemetry phase of the study, collection of hemodynamic and lead II ECG data commenced approximately 30 min prior to dosing and ended approximately 6 h post-dose. Systolic blood pressure (SBP), diastolic blood pressure (DBP), HR, and lead II ECG variables (PR interval, QRS duration, RR interval, and QT interval) were acquired continuously from each animal during each dose day recording session. The QT interval was corrected for variations in HR using the Fridericia's QTc interval (QTcF).
Data acquired following treatment with vehicle or compound (III) were extracted at −10, −5, 0, 10, 20, 30, 35, 45, 60, 90, 150, 270, and 390 min relative to the start dose time. For all blood pressure and ECG parameters, data following treatment with compound (III) were compared to the time-matched vehicle dose data. Statistical comparisons were made using a one-way ANOVA for repeated measures, followed by the Dunnett's post-hoc test when statistical significance was detected with the ANOVA. Changes were considered statistically significant when p<0.05.
A complete visual scan of the ECG waveforms from the vehicle, 11 mg/kg dose, and 15 mg/kg dose of compound (III) was conducted. All waveforms were examined for gross changes in waveform morphology and arrhythmogenesis.

P. acnes = assay: MIC, NCCLS Reference Agar Dilution Method for anaerobic bacteria; type: cell-based, Propionibacterium acnes
Experimental: Minimum inhibitory concentrations (“MICs”) were determined by the NCCLS Reference Agar Dilution Method (M11-A5, Vol. 21, No. 2) for anaerobic bacteria. A panel of 84 antibiotic-susceptible and resistant strains of Propionibacteria from distinct geographic locations were selected. Following revival from frozen stocks, each strain was purity plated onto Wilkins Chalgren Agar, pH 7.2 (Oxoid, UK), and the appropriate antibiotic resistance/susceptibility phenotype was confirmed by antibiotic disc testing. Each strain was subjected to an agar dilution MIC assay. […] The inocula for each batch of strains were prepared from 7-day old Wilkins Chalgren Agar plate cultures by resuspension of colonies in Wilkins Chalgren Anaerobe broth, pH 7.2 (Oxoid, UK) to an optical density (OD600) of 0.2±0.02. The inoculum (1.0-2.0 μL) for each strain was applied to a Wilkins Chalgren Agar MIC plate in a grid pattern using a Multipoint Inoculator (Denley, UK). All agar plates were incubated at 37° C. for 3 days under anaerobic conditions in AnaeroPack 7 liter rectangular jars (Mitsubishi Gas Chemical Company, Inc., Japan).

in vivo = conditions: male, beagle, dog, iv; for AUC: AUCtot
Experimental: as §1, §2
For the pharmacokinetic (PK) phase, the blood collection intervals were: predose, 10, 20, 30, (end dose time), 35, 45, 60, 90, 150, 270, 390, 510, 1440, and 2880 min relative to the start of the infusion. Whole blood (˜2 mL) was collected into Vacutainerss' (BD, Franklin, N.J.) containing sodium heparin as the anticoagulant agent. Blood samples were centrifuged at a speed of 3000 rpm, a temperature of 4° C. and a run time of 10 min. Plasma samples were transferred to amber glass vials and analyzed by LC/MS/MS to determine drug concentrations.

[1] = dog, intravenous 11 and 15 mg/kg

Question: Which results are given for `CC1CC(N(C)C)C(O)C(O[C@@H]2[C@@H](C)C(=O)[C@](C)(F)C(=O)O[C@H](CCF)[C@@]3(C)OC(=O)N[C@@H]3[C@@H](C)C(=O)[C@H](C)C[C@@]2(C)OC/C=C/c2ccc3cccnc3c2)O1` (stereo partly shown) [Compound (III), 6-O-(1-(7-quinolyl)-3-propenyl)-11-amino-11-deoxy-3-(descladinosyl)-3-oxo-2,15-difluoroerythromycin A-11,12-cyclic carbamate]?
Answer: effect on mean HR (male beagle dogs; dog, intravenous 11 mg/kg): no effect; effect on the QRS duration (male beagle dogs; dog, intravenous 11 mg/kg): no effect; effect on mean HR (male beagle dogs; dog, intravenous 15 mg/kg, at the 90 and 390 time points): Significant (p<0.05) decreases in mean HR; effect on QTcF (male beagle dogs; dog, intravenous 30 mg/kg, 35 to 90 min postdose, vs time-matched vehicle): lengthening of the QTcF interval; effect on the PR interval (male beagle dogs; dog, intravenous 30 mg/kg, 150 to 390 min, p<0.05 at 390 min): increase in the PR interval; effect on HR (male beagle dogs; dog, intravenous 30 mg/kg, 390 min postdose): statistically significant (p<0.05) reduction in the HR; ABP parameters (SBP, DBP, MAP) (male beagle dogs; dog, intravenous 11, 15, and 30 mg/kg, during and up to 150 min after infusion): remained relatively unchanged; effect on the QT interval relative to the vehicle control (male beagle dogs; dog, intravenous 11, 15, or 30 mg/kg): no significant effects; effect on QTcF (male beagle dogs; [1]): no significant effects; effect on the PR interval (male beagle dogs; [1]): No significant effects; waveform morphology or ECG rhythm (male beagle dogs; dog, intravenous 11 or 15 mg/kg): no abnormalities; effect on the QRS duration (male beagle dogs; dog, intravenous 15 and 30 mg/kg, pre-drug baseline also lower): Significant (p<0.05) decreases in QRS duration; RR interval (male beagle dogs; dog, intravenous, study period): remained relatively unchanged; heart rate-corrected QT interval (QTc), FIG. 6 (male beagle dogs; male beagle dogs, intravenous infusion 11 mg/kg or 15.8 mg/kg over 30 minutes): No significant increase in QTc; effect relative to vehicle (male beagle dogs; telemetered dogs, 30 mg/kg): no significant effect; effects on cardiac parameters, including QT interval (male beagle dogs; telemetered dogs, intravenous infusion up to 15 mg/kg): no effects; MIC range (P. acnes; marker RNA 1058, phenotype TetR): 0.06 to 1 µg/mL; MIC range (P. acnes; marker RNA 1058/2058, phenotype TetR, EryR): 1 to 2 µg/mL; MIC range (P. acnes; marker RNA 1058/2059, phenotype TetR, EryR): 0.5 µg/mL (≈ 0.623 µM); MIC range (P. acnes; marker RNA 2057, phenotype EryR): 0.06 µg/mL (≈ 0.0748 µM); MIC range (P. acnes; marker RNA 2058, phenotype EryR): 0.125 to 2 µg/mL; MIC range (P. acnes; marker RNA 2058, phenotype EryR, TetR): 0.06 to 1 µg/mL; MIC range (P. acnes; marker RNA 2059, phenotype EryR): 0.125 to 2 µg/mL; MIC range (P. acnes; marker ermX, phenotype EryR): 32 to 128 µg/mL; MIC range (P. acnes; marker none, phenotype none): 0.06 µg/mL (≈ 0.0748 µM); MIC range (P. acnes; marker unknown, phenotype ClindR): 0.06 µg/mL (≈ 0.0748 µM); Tmax (in vivo; 11 mg/kg): 0.46 ± 0.08 h; half-life (in vivo; 11 mg/kg): 5.36 ± 0.4 h; AUC (in vivo; 11 mg/kg): 33900 ± 3190 ng·h/mL; Cmax (in vivo; 11 mg/kg, Mean Cmax): 6000 ± 1130 ng/mL; AUCtot (in vivo; 15 mg/kg): 36047 ± 22104 ng·h/mL; mean Cmax (in vivo; 15 mg/kg): 6206 ± 3144 ng/mL; AUC (in vivo; 15 mg/kg): 43900 ± 23100 ng·h/mL; Cmax (in vivo; 15 mg/kg, mean Cmax): 7520 ± 3310 ng/mL
